According to patent publication US6335350B1, “Acetamide and substituted acetamide-containing thiourea inhibitors of herpes viruses” (American Home Products Corporation, priority 1998, dated 2002):
In brackets after ≈: the same amount, converted by molar mass.

Tests used:
HSV-1 = experiment: HSV Antiviral (ELISA) Assay; type: cell-based, herpes simplex virus type 1; conditions: Vero cells, HSV-1; for IC50: Human alphaherpesvirus 1, Vero, read-out: IC50 Ug/ml HSV
Procedure, shortened: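 Vero cells in DMEM/2% FBS pretreated with compound 30 min before HSV-1 infection (MOI 0.006), then ~24 h at 37 °C. Viral gD detected by ELISA with β-galactosidase secondary and 4-methylumbelliferyl-galactoside (ex 365/em 450 nm); IC50 from fluorescence versus untreated infected cells.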

HCMV wild-type = experiment: HCMV yield assay; type: cell-based, human cytomegalovirus; conditions: human foreskin fibroblasts; for IC50: Human betaherpesvirus 5, Fibroblast, read-out: IC50 Ug/ml HCMV
Procedure, shortened: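 HCMV wild-type infected human foreskin fibroblast monolayers at MOI typically 0.2 with varying compound concentrations; virus yield harvested at 3 days post-infection and titered on fibroblasts without inhibitor, plaques counted at 2 weeks. IC50 or IC90 = compound amount reducing yield titer by 50% or 90%.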

VZV strain Ellen = experiment: VZV Antiviral (ELISA) Assay; type: cell-based, varicella-zoster virus; conditions: human foreskin fibroblast cells; for IC50 / inhibition at 10 µg/mL: Human alphaherpesvirus 3, Fibroblast; for IC50: read-out: IC50 Ug/ml VZV; for inhibition at 10 µg/mL: read-out: % inhibition 10 ug/ml VZV, 10 ug/ml
Procedure, shortened: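 Antiviral IC50 is derived by comparing fluorescence with and without compound after a three-day culture of VZV-infected plus uninfected foreskin fibroblasts. Replication is quantified by ELISA against glycoprotein II, using a β-galactosidase secondary and methyl umbelliferyl-β-D-galactoside.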

| IC50 (HSV-1) [µg/mL] | IC50 Ug/ml HSV (HSV-1) [Ug/ml] | Structure (SMILES) | IC50 (HCMV wild-type) [µg/mL] | IC50 (VZV strain Ellen) [µg/mL] | inhibition at 10 µg/mL (VZV strain Ellen) [%] | IC50 Ug/ml HCMV (HCMV wild-type) [Ug/ml] | % inhibition 10 ug/ml VZV (VZV strain Ellen) [%] | IC50 Ug/ml VZV (VZV strain Ellen) [Ug/ml] |
| --- | --- | --- | --- | --- | --- | --- | --- | --- |
| > 50 |  | COc1cc(OC)c(NC(=S)Nc2cc(OC)c(NC(C)=O)cc2C)cc1Cl [Example 285, N-{4-[3-(5-Chloro-2,4-dimethoxy-phenyl)-thioureido]-2-methoxy-5-methyl-phenyl}-acetamide] | > 50 | > 10 | 18 |  |  |  |
| > 50 |  | COc1cc(OC)c(NC(=S)Nc2ccc(NC(C)=O)c(C(=O)c3ccccc3)c2)cc1Cl [Example 292, N-{2-Benzoyl-4-[3-(5-chloro-2,4-dimethoxy-phenyl)-thioureido]-phenyl}-acetamide] | > 10 | 13 (≈ 26.9 µM) | 70 |  |  |  |
| 1 (≈ 2.54 µM) |  | COc1cc(OC)c(NC(=S)Nc2ccc(NC(C)=O)cc2C)cc1Cl [Example 297, N-{4-[3-(5-Chloro-2,4-dimethoxy-phenyl)-thioureido]-3-methyl-phenyl}-acetamide] | > 10 | > 10 | 23 |  |  |  |
| > 10 |  | COc1cc(OC)c(NC(=S)Nc2ccc(NC(C)=O)c(C(F)(F)F)c2)cc1Cl [Example 305, N-{4-[3-(5-Chloro-2,4-dimethoxy-phenyl)-thioureido]-2-trifluoromethyl-phenyl}-acetamide] | > 10 | > 10 | 32 |  |  |  |
| 8 (≈ 20.3 µM) |  | COc1cc(OC)c(NC(=S)Nc2ccc(NC(C)=O)c(C)c2)cc1Cl [Example 309, N-{4-[3-(5-Chloro-2,4-dimethoxy-phenyl)-thioureido]-2-methyl-phenyl}-acetamide] | 25 (≈ 63.5 µM) | > 10 | 22 |  |  |  |
| 50 (≈ 133 µM) |  | CC(=O)Nc1ccc(NC(=S)Nc2ccc(NC(C)=O)c(Cl)c2)cc1 [Example 312, N-{4-[3-(4-Acetylamino-phenyl)-thioureido]-2-chloro-phenyl}-acetamide] | 50 (≈ 133 µM) | > 10 | 22 |  |  |  |
| 2 (≈ 5.25 µM) |  | COc1cc(OC)c(NC(=S)Nc2ccc(NC(C)=O)nc2)cc1Cl [Example 314, N-{5-[3-(5-Chloro-2,4-dimethoxy-phenyl)-thioureido]-pyridin-2-yl}-acetamide] | 30 (≈ 78.8 µM) | > 10 | 34 |  |  |  |
| 7 (≈ 16.3 µM) |  | COc1cc(OC)c(NC(=S)Nc2cc(O)c(NC(C)=O)cc2Cl)cc1Cl [Example 321, N-{5-Chloro-4-[3-(5-chloro-2,4-dimethoxy-phenyl)-thioureido]-2-hydroxy-phenyl}-acetamide] | 18 (≈ 41.8 µM) | > 10 | 28 |  |  |  |
| 10 (≈ 23.3 µM) |  | COc1cc(OC)c(NC(=S)Nc2cc(C)c(NC(C)=O)cc2Cl)cc1Cl [Example 326, N-{5-Chloro-4-[3-(5-chloro-2,4-dimethoxy-phenyl)-thioureido]-2-methyl-phenyl}-acetamide] | > 10 | > 10 | 19 |  |  |  |
| 4 (≈ 9.3 µM) |  | COc1cc(OC)c(NC(=S)Nc2ccc(NC(C)=O)c3ccccc23)cc1Cl [Example 329, N-{4-[3-(5-Chloro-2,4-dimethoxy-phenyl)-thioureido]-naphthalen-1-yl}-acetamide] | > 10 | > 10 | 38 |  |  |  |
| > 50 |  | COc1cc(OC)c(NC(=S)Nc2ccc(NC(C)=O)c(C(=O)O)c2)cc1Cl [Example 337, 2-Acetylamino-5-[3-(5-chloro-2,4-dimethoxy-phenyl)-thioureido]-benzoic acid] | > 50 | > 10 | 31 |  |  |  |
| 2 (≈ 4.47 µM) |  | COc1cc(OC)c(NC(=S)Nc2ccc(NC(C)=O)cc2C(F)(F)F)cc1Cl [Example 358, N-{4-[3-(5-Chloro-2,4-dimethoxy-phenyl)-thioureido]-3-trifluoromethyl-phenyl}-acetamide] | > 10 | > 10 | 31 |  |  |  |

The remaining lines, values behind:

| Structure (SMILES) | IC50 (HSV-1) [µg/mL] | IC50 Ug/ml HSV (HSV-1) [Ug/ml] | IC50 (HCMV wild-type) [µg/mL] | IC50 (VZV strain Ellen) [µg/mL] | inhibition at 10 µg/mL (VZV strain Ellen) [%] | IC50 Ug/ml HCMV (HCMV wild-type) [Ug/ml] | % inhibition 10 ug/ml VZV (VZV strain Ellen) [%] | IC50 Ug/ml VZV (VZV strain Ellen) [Ug/ml] |
| --- | --- | --- | --- | --- | --- | --- | --- | --- |
| COc1ccc(NC(=S)Nc2ccc(NC(C)=O)cc2)cc1C(F)(F)F [Example 290, N-{4-[3-(4-Methoxy-3-trifluoromethyl-phenyl)-thioureido]-phenyl}-acetamide] | > 50 |  | 5 (≈ 13 µM) | > 10 | 1 |  |  |  |
| CC(=O)Nc1ccc(NC(=S)Nc2ccc(N(C)CCO)c(Cl)c2)cc1 [Example 291] |  | >50 |  |  |  | 6 | 18 | >10 |
| CC(=O)Nc1ccc(NC(=S)Nc2ccc(N(C)CCCN(C)C)c(Cl)c2)cc1 [Example 298, N-[4-(3-{3-Chloro-4-[(3-dimethylamino-propyl)-methyl-amino]-phenyl}-thioureido)-phenyl]-acetamide] | > 50 |  | 15 (≈ 34.6 µM) | > 10 | 1 |  |  |  |
| CC(=O)Nc1ccc(NC(=S)Nc2ccc(NC3CCCCC3)c(Cl)c2)cc1 [Example 299, N-{4-[3-(3-Chloro-4-cyclohexylamino-phenyl)-thioureido]-phenyl}-acetamide] | > 10 |  | 6 (≈ 14.4 µM) | 3.8 (≈ 9.11 µM) | 72 |  |  |  |
| CC(=O)Nc1ccc(NC(=S)Nc2ccc(N(C)CCN(C)C)c(Cl)c2)cc1 [Example 300] |  | >50 |  |  |  | 1.5 | 23 | >10 |
| CCOC(=O)Nc1ccc(NC(=S)Nc2ccc(NC(C)=O)cc2)cc1Cl [Example 313, {4-[3-(4-Acetylamino-phenyl)-thioureido]-2-chloro-phenyl}-carbamic acid ethyl ester] | > 10 |  | > 10 | > 10 | 36 |  |  |  |
| CC(=O)Nc1ccc(NC(=S)Nc2ccc(NC3CCN(Cc4ccccc4)CC3)c(Cl)c2)cc1 [Example 315, N-(4-{3-[4-(1-Benzyl-piperidin-4-ylamino)-3-chloro-phenyl]-thioureido}-phenyl)-acetamide] | 8 (≈ 15.7 µM) |  | 1.5 (≈ 2.95 µM) | > 10 | 40 |  |  |  |
| CC(=O)Nc1ccc(NC(=S)Nc2ccc(NCCN(C)C)c(Cl)c2)cc1 [Example 316, N-(4-{3-[3-Chloro-4-(2-dimethylamino-ethylamino)-phenyl]-thioureido}-phenyl)-acetamide] | 30 (≈ 73.9 µM) |  | > 50 | > 10 | 56 |  |  |  |
| COCCN(C)c1ccc(NC(=S)Nc2ccc(NC(C)=O)cc2)cc1Cl [Example 317, N-[4-(3-{3-Chloro-4-[(2-methoxy-ethyl)-methyl-amino]-phenyl}-thioureido)-phenyl]-acetamide] | 35 (≈ 86 µM) |  | 2 (≈ 4.91 µM) | > 10 | 30 |  |  |  |
| CC(=O)Nc1ccc(NC(=S)Nc2ccc(NCCCN(C)C)c(Cl)c2)cc1 [Example 318, N-(4-{3-[3-Chloro-4-(3-dimethylamino-propylamino)-phenyl]-thioureido}-phenyl)-acetamide] | > 50 |  | > 50 | > 10 | 26 |  |  |  |
| CC(=O)Nc1ccc(NC(=S)Nc2ccc(NC3CCN(Cc4ccccc4)C3)c(Cl)c2)cc1 (stereo not shown) [Example 319, N-(4-{3-[4-(1-Benzyl-pyrrolidin-3-ylamino)-3-chloro-phenyl]-thioureido}-phenyl)-acetamide] | 6 (≈ 12.1 µM) |  | 5 (≈ 10.1 µM) | 7 (≈ 14.2 µM) | 82 |  |  |  |
| CC(=O)Nc1ccc(NC(=S)Nc2ccc(OC3CCN(C)C3)c(Cl)c2)cc1 (stereo not shown) [Example 334, N-(4-{3-[3-Chloro-4-(1-methyl-pyrrolidin-3-yloxy)-phenyl]-thioureido}-phenyl)-acetamide] | 35 (≈ 83.5 µM) |  | 18 (≈ 43 µM) | > 10 | 7 |  |  |  |
| CC(=O)Nc1ccc(NC(=S)Nc2ccc(OC3CCN(C)CC3)c(Cl)c2)cc1 [Example 335, N-(4-{3-[3-Chloro-4-(1-methyl-piperidin-4-yloxy)-phenyl]-thioureido}-phenyl)-acetamide] | 30 (≈ 69.3 µM) |  | 30 (≈ 69.3 µM) | > 10 | 8 |  |  |  |
| CC(=O)Nc1ccc(NC(=S)Nc2ccc(OCCCN(C)C)c(Cl)c2)cc1 [Example 336, N-(4-{3-[3-Chloro-4-(3-dimethylamino-propoxy)-phenyl]-thioureido}-phenyl)-acetamide] | 40 (≈ 95 µM) |  | 50 (≈ 119 µM) | > 10 | 17 |  |  |  |
| CC(=O)Nc1ccc(NC(=S)Nc2ccc(OCCN(C)C)c(Cl)c2)cc1 [Example 343, N-(4-{3-[3-Chloro-4-(2-dimethylamino-ethoxy)-phenyl]-thioureido}-phenyl)-acetamide] | > 50 |  | 40 (≈ 98.3 µM) | > 10 | 38 |  |  |  |
| CC(=O)Nc1ccc(NC(=S)Nc2ccc(OC3CCCCC3)c(Cl)c2)cc1 [Example 345, N-{4-[3-(3-Chloro-4-cyclohexyloxy-phenyl)-thioureido]-phenyl}-acetamide] | > 10 |  | > 10 | > 10 | 30 |  |  |  |
